{"source": "patent US11649259B2", "about": "“Polymorphic forms of deoxycytidine, compositions comprising the same and uses” (ZOGENIX MDS, INC., priority 2019, dated 2023)", "key": {"[1]": {"test": "Form B deoxycytidine 12-month stability study (Example 4)", "type": "physicochemical", "conditions": "four lots; long-term storage 25±2° C./60±5% relative humidity and accelerated storage 40±2° C./75±5% relative humidity; measured at 3, 6, 9 and 12 months", "method": "A study was conducted to determine the stability of Form B deoxycytidine prepared by the methods in Example 1 over a 12-month period. Four lots of material were studied: (1) and (2) were packaged in a polyethylene (PE) bag sealed with a cable tie, (3) was packed in a PE bag with silica gel sealed with a cable tie, and (4) was packaged in a PE drum sealed with a cap. […]\nAll attributes were measured initially (0 months) to confirm compliance with the standards above. Appearance, IR, HPLC and water content were then measured at 3, 6, 9 and 12 months to confirm compliance. Microbial content was measured again at 12 months."}, "[2]": {"test": "Stability of Form B by XRPD pattern after storage (no conversion to Form A)", "type": "physicochemical", "text": "“Stability”, as used herein, can be measured by confirming the Form B XRPD pattern of the material after a given storage time. Conversion of Form B to Form A deoxycytidine, as determined by)(RFD, indicates instability. Stability can also be measured by confirming compliance with the test attribute standards as outlined in Example 4. Test attributes include physical appearance, IR trace, HPLC trace for active and impurities, water content, residual solvent content, elemental impurities and microbial growth. One or more of these attributes can be measured after storage over a given period of time, e.g. 6 months, 12 months or more, and under various conditions, e.g. 25±2° C./60±5% relative humidity or 40±2° C./75±5% relative humidity).\nXRPD data for a mixture of A and B dC isoforms (2DC (A+B mix)), the B isoform produced in the small-scale manufacturing run (2DC(7)/S-P-17001 initial) and the isolated A isoform is provided in Table 2. The stability Form B was confirmed by determining the XRPD after 12 months of storage (2DC(7)/S-P-17001 12 month)."}}}
{"smiles": "Nc1ccn([C@H]2C[C@H](O)[C@@H](CO)O2)c(=O)n1", "note": "[Form B deoxycytidine, Deoxycytidine (2′-Deoxycytidine, dC)]", "values": [{"measurement": "changes in test attributes (appearance, IR, HPLC, water content, microbial content) from initial to 12 months", "setting": "[1]", "result": "no significant changes"}, {"measurement": "stability of Form B, XRPD pattern after storage", "setting": "[2]; after 12 months of storage, lot 2DC(7)/S-P-17001, 4 kg scale", "result": "confirmed"}, {"measurement": "time for which the form is stable", "setting": "[2]; stored in a sealed container at e.g. room temperature", "result": "at least 6 months"}]}
